This passage reports GI50 and TGI results from PubChem BioAssay (NCI).

Among the test systems are SK-MEL-5 melanoma; A498 renal; HOP-92 NSCLC; SNB-75 CNS; NCI-H23 lung; MDA-MB-435; MALME-3M melanoma; HS 578T breast; K-562 leukemia; A549 NSCLC.
Test in all cases: growth of human tumour cells (NCI), 48 h

The structures appear in SMILES notation. Values joined by “and” are separate entries in the source; they are usually repeats but may differ in a detail not shown here. Identical values can stand only once.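 The compound was tested at five concentrations on cells cultured in 96-well plates, with a 48-hour exposure period. GI50: concentration for 50% inhibition of growth. TGI: total growth inhibition.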 Where only a bound is given, the exact number is not on record here.

For the molecule `COc1cc(-c2nc(-c3ccccc3)c(-c3ccccc3)[nH]2)cc(OC)c1O`, the GI50 with SK-MEL-5 melanoma was 14.2 µM; in the assay on A498 renal, 76.2 nM; in the assay with HOP-92 NSCLC it was 17.6 µM; in the assay with SNB-75 CNS, 11.2 µM; with NCI-H23 lung, 19 µM; in the assay on MDA-MB-435, 14.5 µM. For the same molecule, the GI50 with MALME-3M melanoma was 18.8 µM; with HS 578T breast it was 19.4 µM; in the assay on K-562 leukemia, 21 µM; in the assay on A549 NSCLC, 19 µM. The TGI with SK-MEL-5 melanoma is 27.6 µM; in the assay with A498 renal, 24.7 µM; in the assay on HOP-92 NSCLC it was 35.4 µM; in the assay with SNB-75 CNS it was 26.4 µM; with NCI-H23 lung, 38.7 µM; in the assay with MDA-MB-435, 28.4 µM. The TGI in the assay on MALME-3M melanoma was 40.3 µM; in the assay with HS 578T breast it was 52.9 µM; in the assay on K-562 leukemia, > 100 µM; in the assay on A549 NSCLC it was 57 µM.

With `COc1ccc2nc3ccccc3c(NCCNCCO)c2c1`, the GI50 with SK-MEL-5 melanoma was 1.05 µM; in the assay on A498 renal, 431 nM; in the assay on HOP-92 NSCLC, 0.908 µM; with SNB-75 CNS it was 0.854 µM; in the assay with NCI-H23 lung, 0.762 µM; in the assay on MDA-MB-435 it was 0.474 µM. Also, the GI50 with MALME-3M melanoma was 0.382 µM; with HS 578T breast it was 0.688 µM; with K-562 leukemia it was 0.356 µM; in the assay with A549 NSCLC it was 0.673 µM. In addition, the TGI came out at 2.35 µM in the assay on SK-MEL-5 melanoma; 1.71 µM with A498 renal; 4.22 µM with HOP-92 NSCLC; 2.13 µM with SNB-75 CNS; 3.53 µM with NCI-H23 lung; 1.83 µM in the assay with MDA-MB-435. Besides, the TGI in the assay on MALME-3M melanoma worked out at 1.88 µM; in the assay on HS 578T breast, 3.85 µM; in the assay on K-562 leukemia, 4.33 µM; in the assay on A549 NSCLC, 7.81 µM.

In the case of `S=c1ssnc1-c1cc2ccccc2o1`, the GI50 in the assay with SK-MEL-5 melanoma is 13.6 µM; in the assay on A498 renal it was 20000 nM; in the assay on HOP-92 NSCLC it was 18.5 µM; with SNB-75 CNS, 23.3 µM; with NCI-H23 lung it was 24.4 µM; in the assay on MDA-MB-435 it was 11.6 µM. The GI50 in the assay on MALME-3M melanoma was 20.7 µM; in the assay on HS 578T breast, 18.5 µM; in the assay with K-562 leukemia, 22.5 µM; with A549 NSCLC it was 16.3 µM. The TGI with SK-MEL-5 melanoma worked out at 26.7 µM; in the assay with A498 renal, 38.8 µM; in the assay with HOP-92 NSCLC it was 43.2 µM; in the assay with SNB-75 CNS it was 95.8 µM; with NCI-H23 lung it was 75.5 µM; in the assay with MDA-MB-435 it was 32 µM. Further, the TGI with MALME-3M melanoma is 46.8 µM; with HS 578T breast, 80.7 µM; in the assay on K-562 leukemia, > 100 µM; with A549 NSCLC, 32.1 µM.

For the molecule `O=C1CCC(c2ccccc2)=NN1c1nc2ccccc2s1`, the TGI with SK-MEL-5 melanoma is 53.1 µM; with A498 renal it was > 100 µM; in the assay with HOP-92 NSCLC it was > 73.8 µM; in the assay with SNB-75 CNS it was > 79.4 µM; in the assay on NCI-H23 lung it was > 84.6 µM; in the assay on MDA-MB-435, 69.7 µM. The TGI in the assay with MALME-3M melanoma is 95.6 µM; in the assay with HS 578T breast, > 100 µM; with K-562 leukemia it was > 100 µM; with A549 NSCLC, > 100 µM.

On to `CCSC[C@@H]1C[C@](O)(c2ccccc2)[C@@H](c2ccccc2)O1`, for which the GI50 is 44.4 µM with SK-MEL-5 melanoma; 69900 nM with A498 renal; 65.5 µM in the assay on HOP-92 NSCLC; 61.4 µM in the assay with SNB-75 CNS; 79.9 µM in the assay on NCI-H23 lung; > 94.6 µM in the assay on MDA-MB-435. Further, the GI50 in the assay with MALME-3M melanoma was > 100 µM; in the assay on HS 578T breast, 50.9 µM; in the assay on K-562 leukemia, 12.3 µM; in the assay on A549 NSCLC, 82.9 µM. In addition, the TGI in the assay with SK-MEL-5 melanoma, with A498 renal, in the assay on HOP-92 NSCLC, with SNB-75 CNS, in the assay with NCI-H23 lung and with MDA-MB-435 was > 100 µM in each case. Further, the TGI is > 100 µM in the assay with MALME-3M melanoma, > 97.1 µM in the assay on HS 578T breast, > 100 µM in the assay with K-562 leukemia and > 100 µM with A549 NSCLC.

Turning to `Cc1cc(C)c2nc3c(c(C(O)C4CCCCN4)c2c1)CC/C3=C\c1ccc(Cl)cc1` (configuration not stated), the TGI is 92.2 µM in the assay on SK-MEL-5 melanoma; > 100 µM in the assay with A498 renal; > 100 µM in the assay on HOP-92 NSCLC; > 100 µM in the assay with SNB-75 CNS; > 100 µM in the assay with NCI-H23 lung; > 100 µM in the assay with MDA-MB-435. The TGI with MALME-3M melanoma, with HS 578T breast, in the assay with K-562 leukemia and in the assay on A549 NSCLC was > 100 µM each time.

On to `O=c1c(I)c[nH]cc1I`, for which the GI50 in the assay on SK-MEL-5 melanoma is > 100 µM; with A498 renal, > 100000 nM; in the assay on HOP-92 NSCLC it was 67.1 µM; in the assay with SNB-75 CNS, > 100 µM; with NCI-H23 lung, > 100 µM; in the assay with MDA-MB-435, > 100 µM. For the same molecule, the GI50 with MALME-3M melanoma, in the assay with HS 578T breast, in the assay with K-562 leukemia and in the assay with A549 NSCLC was > 100 µM in each case. In addition, the TGI in the assay on SK-MEL-5 melanoma, with A498 renal, with HOP-92 NSCLC, with SNB-75 CNS, in the assay with NCI-H23 lung and in the assay on MDA-MB-435 was > 100 µM throughout. Further, the TGI in the assay with MALME-3M melanoma, in the assay on HS 578T breast, in the assay with K-562 leukemia and in the assay with A549 NSCLC was > 100 µM throughout.

Take `CN(C)CCCN1c2ccccc2Sc2ccc(C(F)(F)F)cc21`: the GI50 was 1.57 µM in the assay on SK-MEL-5 melanoma; 1050 nM in the assay with A498 renal; 1.04 µM in the assay with HOP-92 NSCLC; 1.32 µM in the assay on SNB-75 CNS; 1.72 µM with NCI-H23 lung; 1.6 µM with MDA-MB-435. Also, the GI50 with MALME-3M melanoma was 1.56 µM; in the assay on HS 578T breast it was 1.63 µM; in the assay on K-562 leukemia, 2.03 µM; in the assay with A549 NSCLC it was 1.89 µM. In addition, the TGI with HOP-92 NSCLC was 2.99 µM and 26.3 µM; in the assay with SNB-75 CNS it was 3.51 µM and 26 µM and 24.8 µM; with NCI-H23 lung, 4.12 µM and 31.1 µM and 34.4 µM; with MALME-3M melanoma, 3.15 µM and 28.4 µM and 30.1 µM; in the assay on HS 578T breast it was 3.7 µM and 28.5 µM; with K-562 leukemia it was 4.08 µM and 30.9 µM. Further, in the assay with A549 NSCLC, the TGI was 3.83 µM and 31.9 µM and 31.4 µM.

As for `CCN(CC)c1ccc(/C=N/NC(=O)Cc2ccc(Nc3ccnc(C(F)(F)F)c3)cc2)c(O)c1`, the GI50 with SK-MEL-5 melanoma is 0.49 µM; with A498 renal, 2640 nM; in the assay with HOP-92 NSCLC, 4.06 µM; in the assay on SNB-75 CNS it was 2.12 µM; in the assay on NCI-H23 lung it was 1.34 µM; in the assay on MDA-MB-435, 1.29 µM. The GI50 is 1.18 µM in the assay with MALME-3M melanoma, 1.95 µM with HS 578T breast, 0.49 µM in the assay with K-562 leukemia and 1.19 µM in the assay on A549 NSCLC. Further, the TGI with SK-MEL-5 melanoma was 3.86 µM; in the assay on A498 renal, > 89.5 µM; in the assay on HOP-92 NSCLC, > 100 µM; with SNB-75 CNS it was > 61.1 µM; with NCI-H23 lung, > 100 µM; in the assay with MDA-MB-435, > 100 µM. Also, the TGI was > 26 µM in the assay on MALME-3M melanoma, > 48.9 µM in the assay on HS 578T breast, > 100 µM in the assay on K-562 leukemia and > 100 µM with A549 NSCLC.
